Values quoted from earlier work in patent publication US20250255804A1, “LIQUID INJECTABLE COMPOSITIONS OF LURBINECTEDIN” (DR. REDDY’S LABORATORIES LIMITED, priority 2024, published 2025).

Details: solubility increases at acidic pH

COc1ccc2[nH]c3c(c2c1)CCN[C@]31CS[C@@H]2c3c(OC(C)=O)c(C)c4c(c3[C@H](COC1=O)N1[C@@H]2[C@H]2c3c(cc(C)c(OC)c3O)C[C@@H]([C@@H]1O)N2C)OCO4 [lurbinectedin, Lurbinectedin]
solubility in water: insoluble or practically insoluble in water
